Reference: patent publication US20130071854A1, “METHODS FOR THE IDENTIFICATION AND CHARACTERIZATION OF HDAC INTERACTING COMPOUNDS” (priority 2009, published 2013)
Read-outs that look alike come from different tables or passages of the source. Blank lines part the entries; values can stand above or below the molecule they belong to.

Experiments:
MIER1 = test: Chemoproteomic binding profiling, K562 cell extract, SAHA/ITF2357 probe matrix (Kd app), ELSA (ELM-SANT) domain protein; design: species or system human; details: ELSA (ELM-SANT) domain proteins
RERE = test: as above; design: species or system human
EHMT2 = test: Chemoproteomic binding profiling, K562 cell extract, SAHA/ITF2357 probe matrix (Kd app), ELSA (ELM-SANT) domain proteins group; design: species or system human; details: protein EHMT2
MIER3 = test: Chemoproteomic binding profiling, K562 cell extract, SAHA/ITF2357 probe matrix (Kd app), ELSA (ELM-SANT) domain protein; design: species or system human; details: ELSA (ELM-SANT) domain proteins
NuRD complex = test: Chemoproteomic binding profiling, K562 cell extract, SAHA/ITF2357 probe matrix (Kd app); design: species or system human
MIER2 = test: Chemoproteomic binding profiling, K562 cell extract, SAHA/ITF2357 probe matrix (Kd app), ELSA (ELM-SANT) domain protein; design: species or system human; details: ELSA (ELM-SANT) domain proteins
[1] = test system: T1, MiDAC complex (HDAC1/2, DNTTIP1, CDYL, MIDEAS); test: Chemoproteomic binding profiling, K562 cell extract, SAHA/ITF2357 probe matrix (Kd app); design: species or system human
T1 construct: Kd^app MIDEAS; other: protein MIDEAS; MiDAC complex; Kd^app DNTTIP1; other: protein DNTTIP1

[2] = molecular target: T2, non-HDAC targets (e.g. BZW2, ISOC2, aldehyde dehydrogenases) (Homo sapiens, UniProt Q96AB3); test: as above; details: protein ISOC2; selected HDACi off-targets
T2 construct: endogenous in cells; host or cells: K562 whole cell extract
T2 sequence (Q96AB3 1-205): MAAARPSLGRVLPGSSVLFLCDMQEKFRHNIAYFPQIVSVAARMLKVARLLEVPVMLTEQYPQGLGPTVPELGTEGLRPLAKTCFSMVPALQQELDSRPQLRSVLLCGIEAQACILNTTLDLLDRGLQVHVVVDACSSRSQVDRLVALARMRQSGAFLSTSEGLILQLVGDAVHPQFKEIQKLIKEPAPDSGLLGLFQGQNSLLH

[3] = molecular target: T3, non-HDAC targets (e.g. BZW2, ISOC2, aldehyde dehydrogenases) (Homo sapiens, UniProt O94788); test: as above; details: protein ALDH1A2; selected HDACi off-targets
T3 construct: endogenous in cells; host or cells: K562 whole cell extract
T3 sequence (O94788 1-518): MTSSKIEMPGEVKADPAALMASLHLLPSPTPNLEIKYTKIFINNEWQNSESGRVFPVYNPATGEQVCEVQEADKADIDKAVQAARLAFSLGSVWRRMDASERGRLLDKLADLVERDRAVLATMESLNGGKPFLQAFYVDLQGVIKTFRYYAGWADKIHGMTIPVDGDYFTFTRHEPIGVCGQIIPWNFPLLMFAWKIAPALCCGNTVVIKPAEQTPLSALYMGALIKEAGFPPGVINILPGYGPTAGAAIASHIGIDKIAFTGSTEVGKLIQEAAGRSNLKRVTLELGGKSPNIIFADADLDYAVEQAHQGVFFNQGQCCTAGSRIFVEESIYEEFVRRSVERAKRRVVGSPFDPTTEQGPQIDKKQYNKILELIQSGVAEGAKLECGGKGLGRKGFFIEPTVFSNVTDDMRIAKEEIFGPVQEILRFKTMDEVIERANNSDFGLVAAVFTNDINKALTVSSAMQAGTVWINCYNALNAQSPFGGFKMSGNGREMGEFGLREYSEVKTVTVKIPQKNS

[4] = molecular target: T4, non-HDAC targets (e.g. BZW2, ISOC2, aldehyde dehydrogenases) (Homo sapiens, UniProt P16152); test: as above; details: protein CBR1; selected HDACi off-targets
T4 construct: Kd^app CBR1; other: protein CBR1; selected HDACi off-targets
T4 sequence (P16152 1-277): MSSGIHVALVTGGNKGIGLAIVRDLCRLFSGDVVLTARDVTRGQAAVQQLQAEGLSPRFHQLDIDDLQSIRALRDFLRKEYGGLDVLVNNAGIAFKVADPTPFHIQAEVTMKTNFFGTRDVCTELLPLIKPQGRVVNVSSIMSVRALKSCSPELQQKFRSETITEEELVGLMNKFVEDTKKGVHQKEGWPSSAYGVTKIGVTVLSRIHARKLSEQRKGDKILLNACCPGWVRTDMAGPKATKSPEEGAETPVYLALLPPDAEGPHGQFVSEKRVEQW

[5] = molecular target: T5, non-HDAC targets (e.g. BZW2, ISOC2, aldehyde dehydrogenases) (Homo sapiens, UniProt Q08209); test: as above; details: protein PPP3CA; selected HDACi off-targets
T5 construct: Kd^app PPP3CA; other: protein PPP3CA; selected HDACi off-targets

[6] = molecular target: T6, non-HDAC targets (e.g. BZW2, ISOC2, aldehyde dehydrogenases) (Homo sapiens, UniProt Q9Y6E2); test: as above; details: protein BZW2; selected HDACi off-targets
T6 construct: endogenous in cells; host or cells: K562 whole cell extract
T6 sequence (Q9Y6E2 1-419): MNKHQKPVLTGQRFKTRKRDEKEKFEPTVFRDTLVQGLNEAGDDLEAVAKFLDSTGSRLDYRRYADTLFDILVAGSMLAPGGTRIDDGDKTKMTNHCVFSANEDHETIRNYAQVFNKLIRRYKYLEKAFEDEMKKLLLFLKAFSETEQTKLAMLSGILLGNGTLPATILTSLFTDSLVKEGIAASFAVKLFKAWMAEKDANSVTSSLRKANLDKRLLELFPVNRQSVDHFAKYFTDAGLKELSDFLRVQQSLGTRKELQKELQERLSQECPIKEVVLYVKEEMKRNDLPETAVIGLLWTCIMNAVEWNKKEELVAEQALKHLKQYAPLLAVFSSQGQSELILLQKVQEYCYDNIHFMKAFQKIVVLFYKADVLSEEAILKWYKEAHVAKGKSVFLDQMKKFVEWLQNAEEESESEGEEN

Sin3 complex = test: as above; design: species or system human
CoREST complex = test: as above; design: species or system human
HDAC1 = molecular target: T7, HDAC1 (Homo sapiens, UniProt Q13547); test: as above
T7 construct: used to probe endogenous HDACs in K562 whole cell extracts; endogenous in cells
T7 sequence (Q13547 whole entry): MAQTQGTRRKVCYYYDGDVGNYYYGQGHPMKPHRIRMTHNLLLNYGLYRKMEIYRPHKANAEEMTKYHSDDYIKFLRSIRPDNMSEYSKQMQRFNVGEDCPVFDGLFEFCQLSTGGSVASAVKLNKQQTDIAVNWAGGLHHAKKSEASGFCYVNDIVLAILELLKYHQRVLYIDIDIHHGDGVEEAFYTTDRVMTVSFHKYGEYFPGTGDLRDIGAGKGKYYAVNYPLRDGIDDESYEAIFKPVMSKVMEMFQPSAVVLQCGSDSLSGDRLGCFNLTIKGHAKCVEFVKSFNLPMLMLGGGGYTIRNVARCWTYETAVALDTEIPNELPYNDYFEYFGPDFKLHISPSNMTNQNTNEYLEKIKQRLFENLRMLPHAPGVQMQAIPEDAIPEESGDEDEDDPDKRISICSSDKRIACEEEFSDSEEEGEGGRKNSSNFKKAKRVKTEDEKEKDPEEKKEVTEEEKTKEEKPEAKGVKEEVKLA

[7] = test system: acetylated histones H3 and H4; test: Cell-based histone acetylation assay (immunofluorescence, western blotting); design: species or system human; details: K562 and HeLa cells
acetylated tubulin = test: Cell-based tubulin acetylation assay (immunofluorescence, western blotting); design: species or system human; details: K562 and HeLa cells; immunofluorescence and western blotting

SMILES: COc1ccc(Cn2ccc3ccc(C(=O)NO)cc32)cc1 [PCI-34051]
Kd (MIER1): > 59.7 µM | Kd (RERE; protein RERE, ELSA (ELM-SANT) domain proteins): > 59.7 µM | Kd (EHMT2): > 59.7 µM | Kd (MIER3): > 59.7 µM | Kd (NuRD complex; protein GATAD2A, NuRD complex, read-out: Kd^app GATAD2A): > 59.7 µM | Kd (NuRD complex; protein GATAD2B, NuRD complex, read-out: Kd^app GATAD2B): > 59.7 µM | Kd (NuRD complex; protein MBD2, NuRD complex, read-out: Kd^app MBD2): > 59.7 µM | Kd (NuRD complex; protein MBD3, NuRD complex, read-out: Kd^app MBD3): > 59.7 µM | Kd (NuRD complex; protein MTA1, NuRD complex, read-out: Kd^app MTA1): > 59.7 µM | Kd (NuRD complex; protein MTA2, NuRD complex, read-out: Kd^app MTA2): > 59.7 µM | Kd (NuRD complex; protein MTA3, NuRD complex, read-out: Kd^app MTA3): > 59.7 µM | Kd (MIER2): > 59.7 µM | Kd ([1]; protein DNTTIP1, read-out: Kd^app DNTTIP1): > 59.7 µM | Kd ([1]; protein MIDEAS, read-out: Kd^app MIDEAS): > 59.7 µM | Kd [2]: > 59.7 µM | Kd [3]: > 59.7 µM | Kd [4]: 12.8 µM | Kd [5]: 59.7 µM | Kd [6]: 5.04 µM | Kd (Sin3 complex; protein SAP30, read-out: Kd^app SAP30): > 59.7 µM | Kd (Sin3 complex; protein SIN3A, read-out: Kd^app SIN3A): > 59.7 µM | Kd (Sin3 complex; protein SIN3B, read-out: Kd^app SIN3B): > 59.7 µM | Kd (CoREST complex; protein GSE1, CoREST complex, read-out: Kd^app GSE1): > 59.7 µM | Kd (CoREST complex; protein HMG20A, CoREST complex, read-out: Kd^app HMG20A): > 59.7 µM | Kd (CoREST complex; protein HMG20B, CoREST complex, read-out: Kd^app HMG20B): > 59.7 µM | Kd (CoREST complex; protein PHF21A, CoREST complex, read-out: Kd^app PHF21A): > 59.7 µM | Kd (CoREST complex; protein RCOR1, CoREST complex, read-out: Kd^app RCOR1): > 59.7 µM | Kd (CoREST complex; protein RCOR2, CoREST complex, read-out: Kd^app RCOR2): > 59.7 µM | Kd (CoREST complex; protein RCOR3, CoREST complex, read-out: Kd^app RCOR3): > 59.7 µM | Kd (CoREST complex; protein ZMYM2, CoREST complex, read-out: Kd^app ZMYM2): > 59.7 µM | Kd (CoREST complex; protein ZMYM3, CoREST complex, read-out: Kd^app ZMYM3): > 59.7 µM

Kd (HDAC1): 0.01 µM
SMILES: C/C=C1\NC(=O)[C@H]2CSSCC/C=C/[C@H](CC(=O)N[C@H](C(C)C)C(=O)N2)OC(=O)[C@H](C(C)C)NC1=O [romidepsin]

Kd [2]: > 85 µM | Kd [3]: > 85 µM | Kd [4]: > 85 µM | Kd [5]: > 85 µM | Kd [6]: > 85 µM
SMILES: CC(=O)Nc1ccc(C(=O)Nc2ccccc2N)cc1 [tacedinaline]
Kd (MIER1): 195 µM | Kd (RERE): > 85 µM | Kd (EHMT2): > 85 µM | Kd (MIER3): 171 µM | Kd (NuRD complex; read-out: Kd^app CHD4): > 85 µM | Kd (NuRD complex; read-out: Kd^app GATAD2A): 423 µM | Kd (NuRD complex; read-out: Kd^app GATAD2B): 306 µM | Kd (NuRD complex; read-out: Kd^app MBD2): > 85 µM | Kd (NuRD complex; read-out: Kd^app MBD3): 265 µM | Kd (NuRD complex; read-out: Kd^app MTA1): 152 µM | Kd (NuRD complex; read-out: Kd^app MTA2): 226 µM | Kd (NuRD complex; read-out: Kd^app MTA3): 263 µM | histone acetylation (in words) [7]: elicited staining of acetylated histones | Kd (MIER2): 184 µM | tubulin acetylation (in words) (acetylated tubulin): did not affect tubulin | Kd (CoREST complex; read-out: Kd^app GSE1): 122 µM | Kd (CoREST complex; read-out: Kd^app HMG20A): 139 µM | Kd (CoREST complex; read-out: Kd^app HMG20B): 168 µM | Kd (CoREST complex; read-out: Kd^app RCOR1): 114 µM | Kd (CoREST complex; read-out: Kd^app RCOR2): 196 µM | Kd (CoREST complex; read-out: Kd^app RCOR3): 159 µM | Kd (CoREST complex; read-out: Kd^app ZMYM2): > 85 µM | Kd (CoREST complex; read-out: Kd^app ZMYM3): > 85 µM
